The subject of experiment [1] is bovine ciliary muscle (BCM) strips. Put plainly: tissue or blood. It counts as cell-based. The conditions noted are these: for share of the maximal contraction accounted for by the first high affinity/potency phase: biphasic C-R curve, BCM strips; for Max. Tension Generated During Contraction: freshly isolated BCM strips, Krebs 37 °C, 1 g load, 7–11 concentrations (0.1 nM–10 µM), mean ± SEM, 3–8 experiments. On the procedure:
The methods utilized in the current studies were adapted from Lograno and Romano [13] and Ohia et al., with some minor modifications. Fresh bovine eyeballs were obtained from a local abattoir (Fisher Ham and Meat Company, Houston, TX, USA) and transported to the laboratory in ice. Whole eyeballs were placed in warm oxygenated Krebs buffer solution for 30 min to ensure equilibration before dissection of the ciliary muscle. Briefly, the anterior segment was dissected out of whole eyeballs after an incision was made at the limbus. The anterior segment containing the cornea, anterior uvea, and lens was then inverted and the lens dislodged with a probe along with the attached vitreous humor. After removal of the vitreous humor and lens, the whole ciliary muscle (comprising both longitudinal and circular portions) was quickly isolated and dissected from the scleral spur and choroid. Muscle strips of 4–5 mm in length were cut and mounted in 25 mL organ baths containing oxygenated Krebs solution at 37 °C using a silk thread linked to an isometric strain gauge under a constant load of 1g tension. The tissues were then allowed to equilibrate for 30 min. Two ciliary muscle strips were prepared from each eyeball and four to eight strips were used for each series of experiments. The composition of the Krebs solution used (mM) was NaCl, 118; KCl, 4.8; CaCl2, 2.5; KH2PO4, 1.2; NaHCO3, 25; MgSO4, 2.0; dextrose, 10 and flurbiprofen, 0.003 (pH 7.4), all purchased from Sigma-Aldrich, St. Louis, MO (USA). […] A robust response was characterized as a single contraction that consistently yielded a tension in the muscle induced by carbachol of 0.15–0.3 gm. […] Tissue strips were then thoroughly rinsed with fresh buffer solution via a series of buffer additions and drainage activities to remove any residual muscarinic agonist, and the preload was readjusted prior to starting the actual study with kininergic ligands. Concentration–response studies employed 7–11 compound concentrations (0.1 nM to 10 µM) and data from multiple experiments were collected.
The contractile responses obtained were expressed as gram tension developed and as percentages of the maximum response of each of the compounds. GraphPad Prism 4.0 Software (San Diego, CA, USA) was then used to construct the concentration–response curves for the kinins and to derive the half-maximal stimulation potencies (EC50) of each phase of the bi-phasic curves and the values tabulated as previously described.

The target in experiment [2] is kinin B1 receptor (Mus musculus) (UniProt Q61125). The conditions noted are these: cited from earlier work.
The target is the same in experiment [3]. The settings on record: cited from earlier work. This is another data set of the same source.
Experiment [4] addresses kinin B2 receptor (Oryctolagus cuniculus) (UniProt Q28642). The conditions noted are these: cited from earlier work.
In experiment [5] the target is kinin B1 receptor (Homo sapiens) (UniProt P46663). The conditions noted are these: cited from earlier work.
Experiment [6] deals with kinin B2 receptor (Homo sapiens) (UniProt P30411). The conditions noted are these: cited from earlier work.
Experiment [7] concerns the target kinin B2 receptor (Mus musculus) (UniProt P32299). The settings on record: cited from earlier work.
In experiment [8] the target is kinin B1 receptor (Oryctolagus cuniculus) (UniProt P48748). The settings on record: cited from earlier work.

Where two headings read alike, the source gives them in different places. Square brackets hold non-standard residues; d marks the D form. Peptide text beside a SMILES is read from it. * marks the point of attachment. X1 = COc1ccc(C[C@@H](CN[C@@H](CCCNC(=N)N)C(=O)O)N*)cc1; Hyp = O=C(O)[C@@H]1C[C@@H](O)CN1; 2Thi = N[C@@H](Cc1cccs1)C(=O)O

Chain of UniProt Q61125 (Q61125 whole entry): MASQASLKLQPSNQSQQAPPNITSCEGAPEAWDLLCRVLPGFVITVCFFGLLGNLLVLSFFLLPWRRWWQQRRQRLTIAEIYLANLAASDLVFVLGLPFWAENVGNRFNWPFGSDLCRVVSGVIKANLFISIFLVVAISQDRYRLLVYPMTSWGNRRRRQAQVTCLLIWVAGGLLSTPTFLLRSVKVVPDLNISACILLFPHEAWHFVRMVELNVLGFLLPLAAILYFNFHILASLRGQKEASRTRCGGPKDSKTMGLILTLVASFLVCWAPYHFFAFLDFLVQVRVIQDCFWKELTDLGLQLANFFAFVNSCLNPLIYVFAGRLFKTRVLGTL
Chain of UniProt P48748 (P48748 whole entry): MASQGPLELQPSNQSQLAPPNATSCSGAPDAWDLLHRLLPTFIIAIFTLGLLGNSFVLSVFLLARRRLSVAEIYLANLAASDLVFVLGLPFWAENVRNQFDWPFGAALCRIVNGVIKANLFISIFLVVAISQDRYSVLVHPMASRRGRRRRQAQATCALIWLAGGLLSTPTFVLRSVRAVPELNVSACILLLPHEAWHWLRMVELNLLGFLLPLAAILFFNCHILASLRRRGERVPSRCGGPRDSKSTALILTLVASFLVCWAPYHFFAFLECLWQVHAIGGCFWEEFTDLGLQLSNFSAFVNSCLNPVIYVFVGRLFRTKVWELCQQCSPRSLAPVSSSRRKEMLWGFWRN
Chain of UniProt Q28642 (Q28642 whole entry): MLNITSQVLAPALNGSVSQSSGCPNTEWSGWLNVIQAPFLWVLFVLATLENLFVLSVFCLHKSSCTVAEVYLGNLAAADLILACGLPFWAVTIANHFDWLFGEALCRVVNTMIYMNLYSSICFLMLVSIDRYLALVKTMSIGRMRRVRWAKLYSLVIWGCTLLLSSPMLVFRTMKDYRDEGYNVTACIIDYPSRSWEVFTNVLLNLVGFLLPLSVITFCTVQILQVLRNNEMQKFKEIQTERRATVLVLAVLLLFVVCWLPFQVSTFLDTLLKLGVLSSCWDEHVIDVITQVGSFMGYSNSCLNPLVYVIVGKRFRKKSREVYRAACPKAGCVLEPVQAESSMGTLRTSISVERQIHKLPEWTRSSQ
Chain of UniProt P32299 (P32299 whole entry): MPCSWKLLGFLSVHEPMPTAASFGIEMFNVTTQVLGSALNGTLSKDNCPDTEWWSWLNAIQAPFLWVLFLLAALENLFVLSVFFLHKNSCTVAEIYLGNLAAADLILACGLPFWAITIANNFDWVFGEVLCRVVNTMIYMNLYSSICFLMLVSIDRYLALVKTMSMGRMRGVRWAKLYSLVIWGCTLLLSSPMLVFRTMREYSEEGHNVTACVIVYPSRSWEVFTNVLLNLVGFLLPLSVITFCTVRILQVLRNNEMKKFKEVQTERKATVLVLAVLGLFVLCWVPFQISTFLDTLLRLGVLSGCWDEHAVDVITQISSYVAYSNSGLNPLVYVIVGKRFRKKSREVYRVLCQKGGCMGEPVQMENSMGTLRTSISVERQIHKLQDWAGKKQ
Chain of UniProt P30411 (P30411 whole entry): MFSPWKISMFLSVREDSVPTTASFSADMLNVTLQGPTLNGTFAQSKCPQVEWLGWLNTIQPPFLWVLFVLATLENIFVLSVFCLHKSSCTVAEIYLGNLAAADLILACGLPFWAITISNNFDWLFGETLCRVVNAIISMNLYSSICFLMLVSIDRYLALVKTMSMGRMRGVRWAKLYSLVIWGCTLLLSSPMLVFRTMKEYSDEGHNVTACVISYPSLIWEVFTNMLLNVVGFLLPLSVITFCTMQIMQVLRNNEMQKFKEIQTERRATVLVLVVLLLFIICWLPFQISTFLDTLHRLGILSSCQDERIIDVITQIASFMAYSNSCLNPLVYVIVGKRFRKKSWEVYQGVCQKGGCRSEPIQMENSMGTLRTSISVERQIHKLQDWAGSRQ
Chain of UniProt P46663 (P46663 whole entry): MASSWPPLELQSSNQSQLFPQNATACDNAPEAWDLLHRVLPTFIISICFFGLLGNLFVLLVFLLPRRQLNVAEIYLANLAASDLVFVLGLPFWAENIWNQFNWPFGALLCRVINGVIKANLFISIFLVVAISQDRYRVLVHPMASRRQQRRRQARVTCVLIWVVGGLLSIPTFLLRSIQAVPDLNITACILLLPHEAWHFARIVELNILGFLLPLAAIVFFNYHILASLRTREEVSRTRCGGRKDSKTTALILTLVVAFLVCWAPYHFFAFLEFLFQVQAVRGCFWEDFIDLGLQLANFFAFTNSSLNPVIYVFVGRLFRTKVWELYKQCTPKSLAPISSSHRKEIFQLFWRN

For the compound `C[N+](C)(C)CCOC(N)=O` [carbachol], the “contraction of BCM by positive control agent” value in experiment [1] (monophasic concentration-dependent profile, n = 6–8) is given as “always contracted the tissue”.
Take `CN1[C@@H]2CC[C@H]1C[C@@H](OC(=O)C(CO)c1ccccc1)C2` (stereo partly shown) [atropine]: the EC50 in experiment [1] (Bos taurus, carbachol C-R curve in the absence and presence of atropine, n = 6, read-out: potency (EC50) from monophasic carbachol concentration-response curve) worked out at 1000 ± 70 nM. Moreover, in experiment [1] (increasing concentrations of atropine, n = 6–8), the “effect of muscarinic antagonist on carbachol-induced BCM contraction” value is “concentration-dependently blocked”.
In the case of `COc1ccc(C[C@@H](CN[C@@H](CCCNC(=N)N)C(=O)O)NC(=O)[C@@H]2CCCN2C(=O)[C@H](CO)NC(=O)[C@H](Cc2cccs2)NC(=O)CNC(=O)[C@@H]2C[C@@H](O)CN2C(=O)[C@@H]2CCCN2C(=O)[C@@H](N)CCCNC(=N)N)cc1` [RMP-7] (H-RP[Hyp]G[2Thi]SP-X1), in experiment [1], the EC50 came out at 3.5 ± 0.5 nM, the “share of the maximal contraction accounted for by the first high affinity/potency phase” value (from here on “share … by the first high affinity/potency phase”) is listed as 40–60% and the “Max. Tension Generated During Contraction” value was 0.07 ± 0.01 gm tension.
In general, Ki refers to the equilibrium dissociation constant of an inhibitor or competing ligand from its target. As for “Des-Arg9-bradykinin (from UniProt P01042)”, the Ki in experiment [2] was 0.7 nM.
In the case of `CSCC[C@H](N)C(=O)N[C@@H](CCCCN)C(=O)N[C@@H](CCCNC(=N)N)C(=O)N1CCC[C@H]1C(=O)N1CCC[C@H]1C(=O)NCC(=O)N[C@@H](Cc1ccccc1)C(=O)N[C@@H](CO)C(=O)N1CCC[C@H]1C(=O)N[C@@H](Cc1ccccc1)C(=O)N[C@@H](CCCNC(=N)N)C(=O)O` [Met-Lys-BK, Met-Lys-Bradykinin], in experiment [1], the “share … by the first high affinity/potency phase” value is recorded as 40–60% and the “Max. Tension Generated During Contraction” value was 0.06 ± 0.01 gm tension.
On the same counts, the results for `N=C(N)NCCC[C@H](NC(=O)[C@H](Cc1ccccc1)NC(=O)[C@@H]1CCCN1C(=O)[C@H](CO)NC(=O)[C@H](Cc1ccccc1)NC(=O)CNC(=O)[C@@H]1CCCN1C(=O)[C@@H]1CCCN1C(=O)[C@H](CCCNC(=N)N)NC(=O)[C@@H](N)CCCCN)C(=O)O` [Lys-BK, Lys-Bradykinin] are 40–60% and 0.06 ± 0.01 gm tension.
As to `N=C(N)NCCC[C@H](NC(=O)[C@H](Cc1ccccc1)NC(=O)[C@@H]1CCCN1C(=O)[C@H](CO)NC(=O)[C@H](Cc1ccccc1)NC(=O)CNC(=O)[C@@H]1C[C@@H](O)CN1C(=O)[C@@H]1CCCN1C(=O)[C@@H](N)CCCNC(=N)N)C(=O)O` [Hyp^3-BK, Hyp^3-Bradykinin], in experiment [1], the “share … by the first high affinity/potency phase” value is 40–60% and the “Max. Tension Generated During Contraction” value is reported as 0.04 ± 0.01 gm tension.
On to Bradykinin (from UniProt P01042), for which the inhibition constant Ki was 200 nM in experiment [3]; 4.5 nM in experiment [4]; 10000 nM in experiment [5]; 0.54 nM in experiment [6]; 0.48 nM in experiment [7]; 5000 nM in experiment [8].

Values taken from paper PMC11597478, “Kinin B1- and B2-Receptor Subtypes Contract Isolated Bovine Ciliary Muscle: Their Role in Ocular Lens Function and Intraocular Pressure Reduction” (Pharmaceuticals, 2024).
